In test [1] the test system is Wnt-responsive Sp5-Luc reporter in SW480 colon carcinoma cells. Put plainly: Wnt activity screening assay (Sp5-Luc reporter). Format: cell-based. Conditions: Homo sapiens. An excerpt:
The screening assay for Wnt activity is described as follows. Reporter cell lines can be generated by stably transducing cancer cell lines (e.g., colon cancer) or primary cells (e.g., IEC-6 intestinal cells) with a lentiviral construct that includes a Wnt-responsive promoter driving expression of the firefly luciferase gene.
SW480 colon carcinoma cells were transduced with a lentiviral vector expressing luciferase with a human Sp5 promoter consisting of a sequence of eight TCF/LEF binding sites. […] These stably transduced SW480 cells were expanded in cell culture and used for all further screening activities. […] For Sp5-Luc reporter gene assays, the cells were plated at 4,000 cells/well in 384-well plates with a DMEM medium containing 1% fetal bovine serum, and 1% Penicillin-Streptomycin and incubated for 36 to 48 hours at 37° C. and 5% CO2. Following incubation, 15 μL of BriteLite Plus luminescence reagent (Perkin Elmer) was added to each well of the 384-well assay plates. The plates were placed on an orbital shaker for 2 min and then luminescence was quantified using the Envision (Perkin Elmer) plate reader.

In test [2] the test system is SW480 colorectal cancer cells. Put plainly: Gene expression qRT-PCR in SW480 cells. Conditions: Homo sapiens. Type of test: cell-based. How it is done: SW480 colorectal cancer cells were plated at 1×10^4 cells per well into 96-well plates (Olympus). Compounds were diluted in cell culture media and added to the cells at a final concentration of 3 μM. Cells were treated with vehicle (DMSO) and compounds for 24 hours. N=3 biological replicates per conditions.
Following treatment, cells were lysed, and cDNA was generated using the Fastlane Cell cDNA Kit (Qiagen).
384-well PCR plates with pre-spotted primers for CLK1, CLK2, CLK3, DVL2, LRP5, SRSF1, SRSF3, SRSF4, SRSF5, TCF7, TCF7L2 were ordered from Bio-Rad. The generated cDNA, along with a SYBR Green qRT-PCR master mix (SsoAdvanced™ Universal SYBR® Green Supermix, Bio-Rad) was added to the PCR plates.
qRT-PCR was performed on the plates using a CFX384 Touch™ Real-Time PCR Detection System (Bio-Rad) with the manufacturer's recommended thermal cycling conditions.
Data from the qRT-PCR assay was normalized to the GAPDH and HPRT1 housekeeping genes and set gene expression fold change was set relative to vehicle-treated cells using the ΔΔCt analysis method.

The target of test [3] is CLK3 (Homo sapiens, UniProt P49761). Put plainly: CLK3 kinase activity assay (Z-lyte, Ser/Thr 18 peptide).
For test [4], the target named is T1, CLK2 (Homo sapiens, UniProt P49760).
T1 construct: purchased Thermo Fisher (Life Technologies), Z'-LYTE Kinase Assay Kits
Put plainly: CLK2 kinase activity assay (Z-lyte, Ser/Thr 6 peptide). Format: biochemical. How it is done:
All reactions were performed in duplicate.

The mark [5] stands for this setting: SW480 Sp5-Luc reporter, 36 to 48 hours, read-out: EC50.
Where [6] appears, read: SW480, 3 μM, 24 hours, relative to DMSO, read-out: gene expression fold change CLK1.
[7] abbreviates: SW480, 3 μM, 24 hours, relative to DMSO, read-out: gene expression fold change CLK2.
[8] abbreviates: SW480, 3 μM, 24 hours, relative to DMSO, read-out: gene expression fold change CLK3.
Setting [9] is: SW480, 3 μM, 24 hours, relative to DMSO, read-out: gene expression fold change DVL2.
Setting [10] is: SW480, 3 μM, 24 hours, relative to DMSO, read-out: gene expression fold change LRP5.
The mark [11] stands for this setting: SW480, 3 μM, 24 hours, relative to DMSO, read-out: gene expression fold change SRSF1.
The mark [12] stands for this setting: SW480, 3 μM, 24 hours, relative to DMSO, read-out: gene expression fold change SRSF3.
[13] abbreviates: SW480, 3 μM, 24 hours, relative to DMSO, read-out: gene expression fold change SRSF4.
Setting [14] is: SW480, 3 μM, 24 hours, relative to DMSO, read-out: gene expression fold change SRSF5.
Where [15] appears, read: SW480, 3 μM, 24 hours, relative to DMSO, read-out: gene expression fold change TCF7.
The mark [16] stands for this setting: SW480, 3 μM, 24 hours, relative to DMSO, read-out: gene expression fold change TCF7L2.
[17] abbreviates: recombinant CLK2 kinase, ATP 60 μM, read-out: EC50.

The structures appear in SMILES notation. Like-named read-outs stand apart in the source and are kept apart here.

T1 sequence (P49760 whole entry): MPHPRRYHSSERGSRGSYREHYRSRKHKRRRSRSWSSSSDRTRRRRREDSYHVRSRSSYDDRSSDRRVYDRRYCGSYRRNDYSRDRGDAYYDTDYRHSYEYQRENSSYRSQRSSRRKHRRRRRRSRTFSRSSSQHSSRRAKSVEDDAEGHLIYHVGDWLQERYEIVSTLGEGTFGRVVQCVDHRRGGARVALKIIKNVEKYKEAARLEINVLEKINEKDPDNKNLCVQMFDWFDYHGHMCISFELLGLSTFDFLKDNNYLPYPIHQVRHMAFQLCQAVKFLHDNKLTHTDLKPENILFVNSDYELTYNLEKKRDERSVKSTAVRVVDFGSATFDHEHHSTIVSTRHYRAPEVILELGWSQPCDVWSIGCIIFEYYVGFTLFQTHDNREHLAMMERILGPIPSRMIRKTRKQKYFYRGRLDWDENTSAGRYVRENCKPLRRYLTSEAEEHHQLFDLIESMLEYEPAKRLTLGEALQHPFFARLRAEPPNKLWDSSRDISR
Chain of CLK3 (P49761 whole entry): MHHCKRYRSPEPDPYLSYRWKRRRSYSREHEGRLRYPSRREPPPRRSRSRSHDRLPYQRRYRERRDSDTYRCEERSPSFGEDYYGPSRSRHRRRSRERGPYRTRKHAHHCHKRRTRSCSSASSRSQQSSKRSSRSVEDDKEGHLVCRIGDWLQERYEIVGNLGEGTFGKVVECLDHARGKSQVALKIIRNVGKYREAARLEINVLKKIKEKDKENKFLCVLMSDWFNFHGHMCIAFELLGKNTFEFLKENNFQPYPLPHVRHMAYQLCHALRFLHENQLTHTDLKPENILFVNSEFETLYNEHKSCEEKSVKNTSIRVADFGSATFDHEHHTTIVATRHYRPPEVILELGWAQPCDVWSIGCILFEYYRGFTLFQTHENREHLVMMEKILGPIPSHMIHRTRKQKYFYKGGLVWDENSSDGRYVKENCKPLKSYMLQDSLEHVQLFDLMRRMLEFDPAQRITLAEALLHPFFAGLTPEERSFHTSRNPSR

As to `Cc1n[nH]c2ccc(-c3cncc(OC[C@H](N)Cc4ccccc4)n3)cc12` [Compound 2], the EC50 in test [1] (setting [5]) was determined as 253 nM. For the same compound, the fold induction at 3 µM in test [2] (setting [6]) worked out at 0.01; in test [2] (setting [7]), 0.05; in test [2] (setting [8]) it was 0.02; in test [2] (setting [9]) it was 0.05; in test [2] (setting [10]), 0.07; in test [2] (setting [11]), 0.13. In addition, the fold induction at 3 µM in test [2] (setting [12]) is 0.05; in test [2] (setting [13]), 0.02; in test [2] (setting [14]) it was 0.14; in test [2] (setting [15]), 0.32; in test [2] (setting [16]) it was 0.13.

Turning to `Cc1n[nH]c2ccc(-c3cncc(OC[C@@H](N)Cc4ccccc4)c3)cc12` [Compound 3], the EC50 in test [1] (setting [5]) was found to be 356 nM.

For the compound `CN(C)CCN(C)c1ccc(NC(=O)c2n[nH]c3ccc(-c4cncc(CN5CCCCC5)c4)cc23)cn1` [Compound 6], the EC50 came out at 65 nM in test [1] (setting [5]) and 17 nM in test [3]. Also, the fold induction at 3 µM in test [2] (setting [6]) worked out at 0.04; in test [2] (setting [7]), 0.06; in test [2] (setting [8]), 0.03; in test [2] (setting [9]), 0.06; in test [2] (setting [10]) it was 0.05; in test [2] (setting [11]) it was 0.1. Moreover, the fold induction at 3 µM in test [2] (setting [12]) came to 0.04; in test [2] (setting [13]), 0.01; in test [2] (setting [14]), 0.1; in test [2] (setting [15]), 0.31; in test [2] (setting [16]), 0.07.

For `Cc1ccc(-c2cncc3[nH]c(-c4n[nH]c5ccc(-c6cncc(N)c6)nc45)nc23)s1` [Compound 7], the EC50 in test [1] (setting [5]) was 41 nM; in test [3], 10 nM; in test [4] (setting [17]) it was 1 nM.

On to `Cc1ncc(-c2ccc3[nH]nc(-c4nc5c(-c6cc(F)cc(NCCN(C)C)c6)ccnc5[nH]4)c3n2)n1C` [Compound 8], for which the EC50 in test [1] (setting [5]) stood at 623 nM; in test [3], 22 nM; in test [4] (setting [17]), 1 nM.

In test [1] (SW480), `CNc1nc(NCc2ncccn2)c2c(-c3ccc4ncccc4c3)c[nH]c2n1` [Compound 9] yielded an EC50 of 92 nM. Further, the fold induction at 3 µM in test [2] (SW480, 24 h, read-out: gene expression fold change CLK1) is 0.16; in test [2] (SW480, 24 h, read-out: gene expression fold change CLK2), 0.06; in test [2] (SW480, 24 h, read-out: gene expression fold change CLK3) it was 0.51; in test [2] (SW480, 24 h, read-out: gene expression fold change DVL2), 0.21; in test [2] (SW480, 24 h, read-out: gene expression fold change LRP5), 0.18; in test [2] (SW480, 24 h, read-out: gene expression fold change SRSF1), 1.91. Besides, the fold induction at 3 µM was found to be 0.62 in test [2] (SW480, 24 h, read-out: gene expression fold change SRSF3); 0.62 in test [2] (SW480, 24 h, read-out: gene expression fold change SRSF4); 0.56 in test [2] (SW480, 24 h, read-out: gene expression fold change SRSF5); 0.2 in test [2] (SW480, 24 h, read-out: gene expression fold change TCF7); 0.29 in test [2] (SW480, 24 h, read-out: gene expression fold change TCF7L2).

Consider `Cn1ncc(-c2ccc3cnc(NC(=O)c4ccnc(N5CCOCC5)c4)cc3c2)c1CN1CCOCC1` [Compound 13], for which the EC50 in test [3] is 10 nM; in test [4] (setting [17]), 1 nM.

`Cn1cncc1-c1ccc2cnc(NC(=O)c3ccc4c(c3)CNC4)cc2c1` [Compound 15]: the EC50 was found to be 30 nM in test [3] and 1 nM in test [4] (setting [17]).

On to `Cc1ncc(C(=O)Nc2cc3cc(-c4cnc(C)n4C)ccc3cn2)s1` [Compound 16], for which the values for the EC50 in test [1] (setting [5]) and in test [4] (setting [17]) were 165 nM and 1 nM, respectively. Further, the fold induction at 3 µM in test [2] (setting [6]) amounted to 0.22; in test [2] (setting [7]), 0.06; in test [2] (setting [8]) it was 0.59; in test [2] (setting [9]), 0.18; in test [2] (setting [10]), 0.17; in test [2] (setting [11]), 1.92. Moreover, the fold induction at 3 µM was 0.61 in test [2] (setting [12]); 0.66 in test [2] (setting [13]); 0.54 in test [2] (setting [14]); 0.21 in test [2] (setting [15]); 0.14 in test [2] (setting [16]).

`CC(C)Oc1ccc(C(=O)Nc2cc3cc(-c4cnc5n4CCNC5)ccc3cn2)cc1` [Compound 17]: the EC50 in test [3] was found to be 161 nM; in test [4] (setting [17]), 2 nM.

On to `CN1CCN(c2ccc(C(=O)Nc3cc4cc(-c5nncs5)ccc4cn3)cn2)CC1` [Compound 18], for which the EC50 worked out at 54 nM in test [3] and 2 nM in test [4] (setting [17]).

`Cc1nnc(-c2ccc3cnc(NC(=O)c4ccnc(SC5CCN(C)CC5)c4)cc3c2)s1` [Compound 19]: the EC50 in test [3] was 14 nM; in test [4] (setting [17]), 2 nM.

Regarding `O=C(Nc1cc2cc(-c3cncc(NCC4(F)CNC4)n3)ccc2cn1)C1CC1` [Compound 21], the EC50 in test [1] (setting [5]) is 151 nM; in test [4] (setting [17]), 1 nM. The fold induction at 3 µM in test [2] (setting [6]) turned out to be 0.02; in test [2] (setting [7]) it was 0.03; in test [2] (setting [8]) it was 0.05; in test [2] (setting [9]), 0.15; in test [2] (setting [10]), 0.07; in test [2] (setting [11]), 0.22. In addition, the fold induction at 3 µM in test [2] (setting [12]) amounted to 0.07; in test [2] (setting [13]) it was 0.03; in test [2] (setting [14]), 0.16; in test [2] (setting [15]), 0.48; in test [2] (setting [16]), 0.1.

Turning to `CN1CCC(n2cc(C(=O)Nc3cc4cc(-c5cncc6[nH]ccc56)ccc4cn3)cn2)CC1` [Compound 23], the values for the EC50 in test [1] (setting [5]) and in test [3] were 26 nM and 9 nM, respectively. Also, the fold induction at 3 µM in test [2] (setting [6]) amounted to 0.02; in test [2] (setting [7]) it was 0.03; in test [2] (setting [8]) it was 0.02; in test [2] (setting [9]), 0.11; in test [2] (setting [10]), 0.04; in test [2] (setting [11]), 0.3. In addition, the fold induction at 3 µM in test [2] (setting [12]) came to 0.09; in test [2] (setting [13]), 0.02; in test [2] (setting [14]) it was 0.24; in test [2] (setting [15]), 0.25; in test [2] (setting [16]) it was 0.12.

Take `NC(=O)c1ccc(NC(=O)c2n[nH]c3ccc(-c4cncc(CN5CCCCC5)c4)cc23)cn1` [Compound 30]: in test [1] (setting [5]), the EC50 came out at 13 nM.

For the compound `CN1CCN(c2ccc(NC(=O)c3n[nH]c4ccc(-c5cncc(CN6CCC(F)(F)C6)c5)cc34)cn2)CC1` [Compound 31], the EC50 in test [1] (setting [5]) was determined as 4 nM.

As to `Nc1ncc(NC(=O)c2n[nH]c3ccc(-c4cncc(CN5CCCCC5)c4)cc23)cn1` [Compound 33], in test [1] (setting [5]), the EC50 stood at 30 nM.

Regarding `CN(C)C(=O)Nc1cncc(-c2ccc3[nH]nc(C(=O)Nc4cccnc4)c3c2)c1` [Compound 34], the EC50 in test [1] (setting [5]) was 176 nM.

Consider `CN1CCC(Oc2cc(NC(=O)c3n[nH]c4cc(F)c(-c5cnn(C)c5)cc34)ccn2)CC1` [Compound 35], for which the EC50 in test [3] was found to be 20 nM; in test [4] (setting [17]), 1 nM.

Turning to `CN1CCN(Cc2ccc(NC(=O)c3n[nH]c4ccc(-c5cccnc5)cc34)cn2)CC1` [Compound 36], the EC50 in test [1] (setting [5]) came to 37 nM.

`COc1ccc(NC(=O)c2n[nH]c3ccc(-c4cncc(CO)c4)cc23)cn1` [Compound 37]: the EC50 in test [1] (setting [5]) came out at 97 nM.

For `CN1CCN(c2nccc3[nH]c(-c4n[nH]c5cc(F)c(-c6cnn(C)c6)cc45)nc23)CC1` [Compound 42], the EC50 in test [1] (setting [5]) is 86 nM.

In the case of `O=C(Nc1cc2cc(-c3cnn4c3CN(CCF)CC4)ccc2cn1)c1ccnc(OC2CNC2)c1` [Compound 79], the EC50 in test [3] turned out to be 44.3 nM; in test [4], 4.4 nM.

The values are drawn from US20220062240A1, “METHODS OF TREATING CANCER USING A CLK INHIBITOR” (BioSplice Therapeutics, Inc., priority 2018, published 2022).
